row,melting point,Structure (SMILES)
1,180 to 182 °C,C[C@]1(COC(=O)N2CCc3cc(Cl)ccc3C2)Cn2cc([N+](=O)[O-])nc2O1
2,230.7 to 233.1 °C,CC1(COc2ccc(N3CCN(c4ccc(C(F)(F)F)cc4)CC3)cc2)Cn2cc([N+](=O)[O-])nc2O1 (stereo not drawn)
3,207.8 to 209.1 °C,CC(C)(C)OC(=O)N1CCC(c2ccc(OCC3(C)Cn4cc([N+](=O)[O-])nc4O3)cc2)CC1 (stereo not drawn)
4,227.5 to 229 °C,C[C@]1(COc2ccc(N3CCSCC3)cc2)Cn2cc([N+](=O)[O-])nc2O1
5,238 to 240 °C (dec.),O=C(Nc1ccc(F)cc1)N1CCC2(CC1)Cn1cc([N+](=O)[O-])nc1O2
6,215 to 217 °C,O=C(Nc1ccc(C(F)(F)F)cc1)N1CCC2(CC1)Cn1cc([N+](=O)[O-])nc1O2
7,> 300 °C,Cc1ccc(NC(=O)N2CCC3(CC2)Cn2cc([N+](=O)[O-])nc2O3)cc1
8,218 to 220 °C,C[C@]1(CN2CCN(C3CCN(C(=O)c4ccc(Cl)cc4)CC3)CC2)Cn2cc([N+](=O)[O-])nc2O1
9,110 to 111 °C,C[C@]1(CN2CCC(N3CCN(C(=O)OCc4ccc(OC(F)(F)F)cc4)CC3)CC2)Cn2cc([N+](=O)[O-])nc2O1
10,157 to 158 °C,C[C@]1(CN2CCN(C3CCN(CC=Cc4ccc(OC(F)(F)F)cc4)CC3)CC2)Cn2cc([N+](=O)[O-])nc2O1
11,242 to 245 °C,O=[N+]([O-])c1cn2c(n1)OC1(CCN(c3ccc(Cl)cc3)CC1)C2
12,198 to 200 °C,C[C@]1(COc2ccc(N3CC[S+]([O-])CC3)cc2)Cn2cc([N+](=O)[O-])nc2O1
13,130.5 to 132 °C,CN(CCOc1ccc(Cl)cc1)C[C@@]1(C)Cn2cc([N+](=O)[O-])nc2O1
14,168 to 169 °C,CN(Cc1ccc(N(C)C)cc1)C[C@@]1(C)Cn2cc([N+](=O)[O-])nc2O1
15,221 to 221.8 °C,CC1(CNC(=O)OCc2ccc(Cl)cc2)Cn2cc([N+](=O)[O-])nc2O1 (stereo not drawn)
16,176.2 to 178.8 °C,CNCC1(C)Cn2cc([N+](=O)[O-])nc2O1.O=C(O)C(F)(F)F (stereo not drawn)
17,129 to 130 °C,CC1(CN2CCC(OCc3ccc(Cl)cc3)CC2)Cn2cc([N+](=O)[O-])nc2O1 (stereo not drawn)
18,109 to 110.5 °C,CC1(CN2CCC(Cc3ccc(Cl)cc3)CC2)Cn2cc([N+](=O)[O-])nc2O1 (stereo not drawn)
19,132 to 136 °C,C[C@]1(CN2CCC(OCc3ccc(Cl)c(Cl)c3)CC2)Cn2cc([N+](=O)[O-])nc2O1

row,melting point,Structure (SMILES)
1,88.8 to 91.9 °C,C[C@]1(CN2CCC(OCCCc3ccc(Cl)cc3)CC2)Cn2cc([N+](=O)[O-])nc2O1
2,200.1 to 201 °C,C[C@]1(CN2CC=C(c3ccccc3)CC2)Cn2cc([N+](=O)[O-])nc2O1
3,158.8 to 163.9 °C,C[C@]1(CN2CCC(c3ccccc3)CC2)Cn2cc([N+](=O)[O-])nc2O1
4,140.6 to 142.8 °C,C[C@]1(CN2CCC(OCC=Cc3ccc(Cl)cc3)CC2)Cn2cc([N+](=O)[O-])nc2O1
5,159 to 160 °C,CC1(CN2CCN(c3ccc(C(F)(F)F)cc3)CC2)Cn2cc([N+](=O)[O-])nc2O1 (stereo not drawn)
6,148 to 149 °C,CC1(CCN2CCN(Cc3ccc(C(F)(F)F)cc3)CC2)Cn2cc([N+](=O)[O-])nc2O1 (stereo not drawn)
7,158.3 to 159.8 °C,CC(C)OC(=O)N1CCN(CC2(C)Cn3cc([N+](=O)[O-])nc3O2)CC1 (stereo not drawn)
8,189 to 191 °C (dec.),COc1ccc(NC(=S)N2CCN(CC3(C)Cn4cc([N+](=O)[O-])nc4O3)CC2)cc1 (stereo not drawn)
9,183 to 183.5 °C,O=[N+]([O-])c1cn2c(n1)O[C@@H](CN1CCN(c3ccc(Cl)cc3)CC1)C2
10,182 to 184 °C,C[C@]1(CN2CCN(Cc3ccc(-c4ccccc4)cc3)CC2)Cn2cc([N+](=O)[O-])nc2O1
11,150 to 155.2 °C,CC1(CN2CCN(C(=O)c3ccc(Cl)cc3)CC2)Cn2cc([N+](=O)[O-])nc2O1 (stereo not drawn)
12,121 to 122 °C,Cc1ccc(C(=O)N2CCN(CC3(C)Cn4cc([N+](=O)[O-])nc4O3)CC2)cc1 (stereo not drawn)
13,122 to 124 °C,CC1(CN2CCN(C(=O)c3cccc(C(F)(F)F)c3)CC2)Cn2cc([N+](=O)[O-])nc2O1 (stereo not drawn)
14,108 to 111 °C,C[C@]1(CN2CCN(C(=O)CCCCc3ccc(Cl)cc3)CC2)Cn2cc([N+](=O)[O-])nc2O1
15,216 to 218 °C,C[C@]1(CN2CCN(S(=O)(=O)c3ccc(Cl)cc3)CC2)Cn2cc([N+](=O)[O-])nc2O1
16,204 to 206 °C,C[C@]1(CN2CCN(S(=O)(=O)Cc3ccc(Cl)cc3)CC2)Cn2cc([N+](=O)[O-])nc2O1
17,80 to 100 °C (dec.),CN1C(=O)C(C)(C)c2cc(COC(=O)N3CCN(C[C@@]4(C)Cn5cc([N+](=O)[O-])nc5O4)CC3)ccc21
18,183 to 184 °C,CC1(CN2CCN(C(=O)Nc3cccc(C(F)(F)F)c3)CC2)Cn2cc([N+](=O)[O-])nc2O1 (stereo not drawn)
19,207 to 210 °C (dec.),Cc1ccc(NC(=O)N2CCN(C[C@@]3(C)Cn4cc([N+](=O)[O-])nc4O3)CC2)cc1

row,melting point,Structure (SMILES)
1,161 to 162 °C,C[C@]1(CN2CCN(C(=O)N3CC=C(c4ccc(Cl)cc4)CC3)CC2)Cn2cc([N+](=O)[O-])nc2O1
2,248 to 252 °C,C[C@]1(CN2CCN(c3ccc(C(=O)O)cc3)CC2)Cn2cc([N+](=O)[O-])nc2O1
3,201.2 to 205.4 °C,C[C@]1(CN2CCN(c3nc(-c4ccccc4)cc(-c4ccccc4)n3)CC2)Cn2cc([N+](=O)[O-])nc2O1
4,190.2 to 191.8 °C,C[C@]1(CN2CCN(N=Cc3cc4cc(C(F)(F)F)ccc4o3)CC2)Cn2cc([N+](=O)[O-])nc2O1
5,188 to 191 °C,CC1(Cn2nc(-c3ccc(F)cc3)oc2=O)Cn2cc([N+](=O)[O-])nc2O1 (stereo not drawn)
6,209 to 212 °C,CC1(CCn2nc(-c3cnccn3)oc2=O)Cn2cc([N+](=O)[O-])nc2O1 (stereo not drawn)
7,246.2 to 246.8 °C,CC1(Cn2c(=O)oc3ccc(F)cc32)Cn2cc([N+](=O)[O-])nc2O1 (stereo not drawn)
8,203.2 to 204.4 °C,Cn1c(=O)n(CC2(C)Cn3cc([N+](=O)[O-])nc3O2)c2ccccc21 (stereo not drawn)
9,135 to 137 °C,CCn1nnnc1CCC1(C)Cn2cc([N+](=O)[O-])nc2O1 (stereo not drawn)
10,212 to 214 °C,CC1(c2cccnc2)Cn2cc([N+](=O)[O-])nc2O1 (stereo not drawn)
11,153 to 154 °C,CC1(CCN2CCN(C(C)(C)C)C(=O)C2)Cn2cc([N+](=O)[O-])nc2O1 (stereo not drawn)
12,115 to 117 °C,CC1(CN2CCCN(C(=O)OCc3ccccc3)CC2)Cn2cc([N+](=O)[O-])nc2O1.Cl (stereo not drawn)
13,185 to 187 °C,O=C(Cc1ccc(C(F)(F)F)cc1)N1CCC2(CC1)Cn1cc([N+](=O)[O-])nc1O2
14,229 to 232 °C (dec.),O=C(Nc1ccccc1)N1CCC2(CC1)Cn1cc([N+](=O)[O-])nc1O2
15,260 to 265 °C (dec.),CC(C)(C)OC(=O)N1CCN(C(=O)N2CCC3(CC2)Cn2cc([N+](=O)[O-])nc2O3)CC1
16,195 to 197 °C (dec.),O=C(CN1CCC2(CC1)Cn1cc([N+](=O)[O-])nc1O2)N1CCN(Cc2ccc(C(F)(F)F)cc2)CC1
17,133 to 135 °C,O=C(CN1CCN(CC(=O)N2CCC3(CC2)Cn2cc([N+](=O)[O-])nc2O3)CC1)Nc1ccc(C(F)(F)F)cc1
18,175 to 178 °C,CNC(=O)OC[C@@]1(C)Cn2cc([N+](=O)[O-])nc2O1
19,113 to 115 °C,CC1(COC(=O)N2CC=C(c3ccc(C(F)(F)F)cc3)CC2)Cn2cc([N+](=O)[O-])nc2O1 (stereo not drawn)
